Like-named read-outs stand apart in the source and are kept apart here.
Experiments:
[1] = Docetaxel pharmacokinetic; assay type: in vivo, mice; details: for AUC: FVB, mouse, iv, 3 mg/kg
ABCB1 [2] = experiment: PBPK model: saturable ABCB1; set-up: species or system mice; details: value (SD) by parameter estimation, FVB data
[3] = ref Kemper et al. 46; cited from earlier work
[4] = cited from earlier work
CYP3A4 [5] = details: cited from earlier work
[6] = Mdr1a/b constitutive knockout (KO), mouse, in vivo, iv, 3 mg/kg, 12 h
[7] = PBPK model of docetaxel: simulations and parameter estimation; set-up: species or system mice; details: for % Difference between observed FVB AUC and predicted FVB AUC / % Difference between observed KO AUC and predicted KO AUC: 100 × (predicted − observed)/observed
CYP3A4 [8] = details: PBPK model parameter, KO mouse model; scaled from in vitro Vmax of ref 27
tubulin [9] = details: higher than paclitaxel; cited from earlier work
ABCB1 [10] = details: homozygous 1236C > T polymorphism in the ABCB1 gene; cited from earlier work
CYP3A4 [11] = details: cited from earlier work; remark: listed apart in the source
[12] = both FVB and KO mice; intravenous; cannulated gallbladder; cited from earlier work
[13] = Docetaxel pharmacokinetic; details: 3 mg/kg i.v.
tubulin [14] = details: determined for colchicine, used for docetaxel; cited from earlier work
[15] = value (SD) by parameter estimation, FVB and KO data

In the case of `CC(=O)O[C@@]12CO[C@@H]1C[C@H](O)[C@@]1(C)C(=O)[C@H](O)C3=C(C)[C@@H](OC(=O)[C@H](O)[C@@H](NC(=O)OC(C)(C)C)c4ccccc4)C[C@@](O)([C@@H](OC(=O)c4ccccc4)[C@H]21)C3(C)C` [docetaxel, Docetaxel], the “Unchanged docetaxel recovered in the feces” value ([1]; FVB mice, 12 h, 3 mg/kg i.v.) is reported as “less than 1.5 % of the administered dose”, the AUC ([1]; brain) is reported as 0.184 µM·h and the AUC ([1]; heart) is reported as 13 µM·h. For the same compound, the AUC ([1]; intestine) was 3.21 µM·h, the AUC ([1]; kidney) was 14.5 µM·h and the AUC ([1]; liver) was 4.34 µM·h. For the same compound, the AUC ([1]; lung) was 18.9 µM·h, the AUC ([1]; plasma) was 0.523 µM·h and the “PGP transport Brain Vmax (VMAXT_brn)” value (ABCB1 [2]) was 14,581 (3.232) nmol/h/kg. For the same compound, the “PGP transport Heart Vmax (VMAXT_hrt)” value (ABCB1 [2]) was 14,599 (3.449) nmol/h/kg, the “PGP transport Kidney Vmax (VMAXT_kid)” value (ABCB1 [2]) was 3,003 (0.012) nmol/h/kg and the “PGP transport Km (KMT)” value (ABCB1 [2]) was 28 (0.007) nmol/kg. For the same compound, the “PGP transport Lung Vmax (VMAXT_lng)” value (ABCB1 [2]) was 340,176 (13.151) nmol/h/kg, the “PGP transport Slowly perfused Vmax (VMAXT_sp)” value (ABCB1 [2]) was 10 (0.002) nmol/h/kg and the “Increase in docetaxel exposure in the brain, KO versus FVB mice” value [3] was “+516%”. The “Bound to plasma proteins” value [4] was 93%, the “Fraction of docetaxel unbound to plasma proteins (FU)” value ([4]; unbound fraction in the blood) was 0.07 and the “Docetaxel cleared from plasma relative to wild-type mice” value (CYP3A4 [5]; mice with CYP3A4 expression in only the intestine) was 21%. The “Docetaxel metabolites M1–4 recovered in the small intestine relative to wild-type mice” value (CYP3A4 [5]; transgenic mice with no CYP3A4 expression in the liver) was 13.5%, the “Unchanged docetaxel recovered in the feces” value [6] was “less than 1.5 % of the administered dose” and the “FVB tubular reabsorption rate constant (K_RABS_fvb)” value ([7]; FVB, value (SD) by parameter estimation) was 0.02 (0.001) h^−1. The “KO tubular reabsorption rate constant (K_RABS_ko)” value ([7]; KO, value (SD) by parameter estimation) was 1.8 (0.001) h^−1, the “% Difference between observed FVB AUC and predicted FVB AUC” value ([7]; brain) was −4.3% and the “% Difference between observed KO AUC and predicted KO AUC” value ([7]; brain) was “+14.8%”. For the same compound, the “% Difference between observed FVB AUC and predicted FVB AUC” value ([7]; heart) was −11.3%, the “% Difference between observed KO AUC and predicted KO AUC” value ([7]; heart) was “+2.9%” and the “First-order liver metabolism rate constant (K_LMET)” value ([7]; hepatic CYP3A4 metabolism, value (SD) by parameter estimation) was 3,664 (1.444) h^−1. For the same compound, the “First-order FVB intestine metabolism rate constant (K_IMET_fvb)” value ([7]; intestinal CYP3A4 metabolism, FVB, value (SD) by parameter estimation) was 19 (0.008) h^−1, the “% Difference between observed FVB AUC and predicted FVB AUC” value ([7]; intestine) was −3.1% and the “% Difference between observed KO AUC and predicted KO AUC” value ([7]; intestine) was “+0.2%”. For the same compound, the “% Difference between observed FVB AUC and predicted FVB AUC” value ([7]; kidney) was “+6.3%”, the “% Difference between observed KO AUC and predicted KO AUC” value ([7]; kidney) was −0.7% and the “% Difference between observed FVB AUC and predicted FVB AUC” value ([7]; liver) was −8.6%. The “% Difference between observed KO AUC and predicted KO AUC” value ([7]; liver) was “+3.0%”, the “% Difference between observed FVB AUC and predicted FVB AUC” value ([7]; lung) was −7.9% and the “% Difference between observed KO AUC and predicted KO AUC” value ([7]; lung) was “+5.1%”. The “% Difference between observed FVB AUC and predicted FVB AUC” value ([7]; plasma) was −2.9%, the “% Difference between observed KO AUC and predicted KO AUC” value ([7]; plasma) was “+14.8%” and the “Tubulin binding capacity, Slowly perfused (TB_sp)” value ([7]; value (SD) by parameter estimation) was 521 (0.231) nmol/kg. The “Partition coefficient FVB intestine:plasma (P_int_fvb)” value ([7]; value (SD) by parameter estimation, FVB) was 195 (0.008) Ratio, the “Partition coefficient Brain:plasma (P_brn)” value [7, 15] was 58 (0.013) Ratio and the “Partition coefficient Heart:plasma (P_hrt)” value [7, 15] was 990 (0.231) Ratio. The “Partition coefficient Kidney:plasma (P_kid)” value [7, 15] was 995 (0.222) Ratio, the “Partition coefficient Liver:plasma (P_liv)” value [7, 15] was 7,088 (1.653) Ratio and the “Partition coefficient Lung:plasma (P_lng)” value [7, 15] was 2,376 (0.546) Ratio. The “Partition coefficient Slowly perfused:plasma (P_sp)” value [7, 15] was 748 (0.174) Ratio, the “Partition coefficient KO intestine:plasma (P_int_ko)” value ([7]; value (SD) by parameter estimation, KO) was 397 (33.970) Ratio and the “Saturable KO intestine metabolism Vmax (VMAXM_int_ko)” value (CYP3A4 [8]) was 2,654 nmol/h/kg. For the same compound, the “Binding affinity relative to paclitaxel” value (tubulin [9]) was “approximately 1.9 fold”, the “Decrease in docetaxel clearance” value (ABCB1 [10]) was 25% and the “Vmax for CYP3A4 metabolism of docetaxel to M2” value (CYP3A4 [11]; in vitro) was 14 pmol/min/mg microsomal protein. The Km (CYP3A4 [11]; read-out: Km for CYP3A4 metabolism of docetaxel to M2) was 0.6 µM, the “Unchanged drug recovered in the bile” value [12] was 3–4 % of the dose and the “Increase in docetaxel concentration in the liver of KO versus FVB mice” value ([13]; 12 h) was 59%. For the same compound, the “Docetaxel plasma concentrations, FVB versus KO mice” value ([13]; during the study (1–12 h)) was “did not note differences”, the “Docetaxel tissue concentration, KO versus FVB mice” value ([13]; lung, kidney, heart, intestine and brain at 2, 4, 8 and 12 h) was “statistically significant increase” and the “Tubulin binding capacity, Brain (TB_brn)” value (tubulin [14]) was 10,710 nmol/kg. For the same compound, the “Tubulin binding capacity, Heart (TB_hrt)” value (tubulin [14]) was 1,970 nmol/kg, the “Tubulin binding capacity, Intestine (TB_int)” value (tubulin [14]) was 1,080 nmol/kg and the “Tubulin binding capacity, Kidney (TB_kid)” value (tubulin [14]) was 1,470 nmol/kg. For the same compound, the “Tubulin binding capacity, Liver (TB_liv)” value (tubulin [14]) was 3,510 nmol/kg and the “Tubulin binding capacity, Lung (TB_lng)” value (tubulin [14]) was 2,580 nmol/kg.

Source: article PMC4292804 (Journal of pharmacokinetics and pharmacodynamics, 2013)
